In paper PMC5572697, “A first-in-human study of the novel HIV-fusion inhibitor C34-PEG4-Chol” (Scientific Reports, 2017):
Like-named read-outs stand apart in the source and are kept apart here.

Legend:
in vivo [1] = conditions: mouse, C57BL/6 mice; for AUC(0-inf): plasma LC-MS, mean of three animals per point
Method: (§1) C34-PEG4-Chol first in man – Supplementary Information
(§2) Supplementary Information 2:
(§3) Preclinical Pharmacokinetics of C34-PEG4-Chol […]
(§4) C34-PEG4-Chol was formulated in 10 mM phosphate buffered saline (pH 7.2). The concentration of C34-PEG4-Chol in plasma samples was determined by LC-MS as previously […]
The PK of C34-PEG4-Chol in C57BL/6 mice following intravenous (IV) and subcutaneous (SC) dosing is shown in […]
(§5) Figure S2: Pharmacokinetics of C34-PEG4-Chol in mice. 3.5 mg/kg or 1.0 mg/kg (SC and IV, respectively) of C34-PEG4-Chol in 10mM phosphate buffered saline (PBS) were administered to C57BL/6 mice: volume of administration 5 mL/kg and 2 mL/kg for SC and IV administration, respectively. The concentration of the dosing solution was determined immediately after dosing with the same analytical method utilized to monitor peptide plasma concentration with time, and the analytical curves were adjusted accordingly (SC dose 0.56 mg/mL, theor.
0.5 mg/mL; IV dose 0.62 mg/mL, theor. 0.7 mg/mL). Each data point is the mean of three animals.
(§6) (1 picture or pasted object on this page, not shown here) […]

in vivo [2] = conditions: rat, Wistar Han rats; for AUC(0-inf): plasma LC-MS, mean of three animals per point
Method: as §1, §2, §3, §4, §6
as §5, with “S3.” for “S2:”, “rats” for “mice.”, “Wistar Han rats:” for “C57BL/6 mice:”, “0.5 mL/kg.” for “5 mL/kg and 2 mL/kg for SC and IV administration, respectively.”, “accordingly. Each data point is the mean of three animals.” for “accordingly (SC dose 0.56 mg/mL, theor.”
Table S3. Calculated pharmacokinetics parameters of C34-PEG4-Chol in rats, following intravenous (IV) and subcutaneous (SC) administration.

in vivo [3] = conditions: rhesus monkey, rhesus monkeys; for AUC(0-inf): plasma LC-MS, mean of three animals per point
Method: as §1, §2, §3, §4
Figure S4. Pharmacokinetics of C34-PEG4-Chol in rhesus monkeys 2.0 mg/kg or 1.0 mg/kg (SC and IV administration, respectively) of C34-PEG4-Chol in 10mM phosphate buffered saline (PBS) were administered to rhesus monkeys: volume of administration 0.5 mL/kg. The concentration of the dosing solution was determined immediately after dosing with the same analytical method utilized to monitor peptide plasma concentration with time, and the analytical curves were adjusted accordingly. Each data point is the mean of three animals.
Table S4. Calculated pharmacokinetics parameters of C34-PEG4-Chol in rhesus monkeys, following intravenous (IV) and subcutaneous (SC) administration. […]

[4] = IV 1.0 mg/kg, read-out: t½ (converted)

**Q.** For `CC[C@H](C)[C@H](NC(=O)[C@H](CC(C)C)NC(=O)[C@H](CO)NC(=O)[C@H](Cc1c[nH]cn1)NC(=O)[C@@H](NC(=O)[C@H](CC(C)C)NC(=O)[C@H](CO)NC(=O)[C@@H](NC(=O)[C@H](Cc1ccc(O)cc1)NC(=O)[C@H](CC(N)=O)NC(=O)[C@H](CC(N)=O)NC(=O)[C@@H](NC(=O)[C@H](CCC(=O)O)NC(=O)[C@H](CCCNC(=N)N)NC(=O)[C@H](CC(=O)O)NC(=O)[C@H](Cc1c[nH]c2ccccc12)NC(=O)[C@H](CCC(=O)O)NC(=O)[C@H](CCSC)NC(=O)[C@H](Cc1c[nH]c2ccccc12)NC(C)=O)[C@@H](C)CC)[C@@H](C)O)[C@@H](C)CC)C(=O)N[C@@H](CCC(=O)O)C(=O)N[C@@H](CCC(=O)O)C(=O)N[C@@H](CO)C(=O)N[C@@H](CCC(N)=O)C(=O)N[C@@H](CC(N)=O)C(=O)N[C@@H](CCC(N)=O)C(=O)N[C@@H](CCC(N)=O)C(=O)N[C@@H](CCC(=O)O)C(=O)N[C@@H](CCCCN)C(=O)N[C@@H](CC(N)=O)C(=O)N[C@@H](CCC(=O)O)C(=O)N[C@@H](CCC(N)=O)C(=O)N[C@@H](CCC(=O)O)C(=O)N[C@@H](CC(C)C)C(=O)N[C@@H](CC(C)C)C(=O)NCC(=O)N[C@@H](CO)C(=O)NCC(=O)N[C@@H](CSCC(=O)NCCOCCOCCOCCOCCC(=O)O[C@H]1CC[C@@]2(C)C(=CC[C@H]3[C@@H]4CC[C@H]([C@H](C)CCCC(C)C)[C@@]4(C)CC[C@@H]32)C1)C(N)=O` [C34-PEG4-Chol], which clearance (in vivo [1]; IV 1.0 mg/kg) is on record?
**A.** 0.29 mL/min/kg

**Q.** What about the AUC(0-inf) (in vivo [1]; IV 1.0 mg/kg in 10 mM PBS) of the same compound?
**A.** 10.8 µM·h

**Q.** What about the Vd (in vivo [1]; IV 1.0 mg/kg, read-out: Vdss) of the same compound?
**A.** 0.05 L/kg

**Q.** What about the half-life (in vivo [1]; [4]) of the same compound?
**A.** 118 min

**Q.** What about the Cmax (in vivo [1]; SC 3.5 mg/kg) of the same compound?
**A.** 1120 nM

**Q.** What about the Tmax (in vivo [1]; SC 3.5 mg/kg) of the same compound?
**A.** 5.3 h

**Q.** What about the bioavailability (in vivo [1]; SC 3.5 mg/kg) of the same compound?
**A.** 30.3%

**Q.** And the AUC(0-inf) (in vivo [1]; SC 3.5 mg/kg in 10 mM PBS)?
**A.** 11.5 µM·h

**Q.** And the clearance (in vivo [2]; IV 1.0 mg/kg)?
**A.** 0.48 mL/min/kg

**Q.** What about the AUC(0-inf) (in vivo [2]; IV 1.0 mg/kg in 10 mM PBS) of the same compound?
**A.** 6.6 µM·h

**Q.** And the Vd (in vivo [2]; IV 1.0 mg/kg, read-out: Vdss)?
**A.** 0.08 L/kg

**Q.** And the half-life (in vivo [2]; [4])?
**A.** 131 min

**Q.** And the Cmax (in vivo [2]; SC 3.5 mg/kg)?
**A.** 260 nM

**Q.** What about the Tmax (in vivo [2]; SC 3.5 mg/kg) of the same compound?
**A.** 3.3 h

**Q.** And the bioavailability (in vivo [2]; SC 3.5 mg/kg)?
**A.** 7.97%

**Q.** What about the AUC(0-inf) (in vivo [2]; SC 3.5 mg/kg in 10 mM PBS) of the same compound?
**A.** 1.86 µM·h

**Q.** What about the clearance (in vivo [3]; IV 1.0 mg/kg) of the same compound?
**A.** 4.68 mL/h/kg

**Q.** What about the AUC(0-inf) (in vivo [3]; IV 1.0 mg/kg in 10 mM PBS) of the same compound?
**A.** 41.5 µM·h

**Q.** And the Vd (in vivo [3]; IV 1.0 mg/kg, read-out: Vdss)?
**A.** 0.055 L/kg

**Q.** And the half-life (in vivo [3]; [4])?
**A.** 510 min

**Q.** What about the Cmax (in vivo [3]; SC 2.0 mg/kg) of the same compound?
**A.** 1150 nM

**Q.** What about the Tmax (in vivo [3]; SC 2.0 mg/kg) of the same compound?
**A.** 6.7 h

**Q.** What about the bioavailability (in vivo [3]; SC 2.0 mg/kg) of the same compound?
**A.** 45.3%

**Q.** And the AUC(0-inf) (in vivo [3]; SC 2.0 mg/kg in 10 mM PBS)?
**A.** 37.5 µM·h
